Data reported in PubChem BioAssay AID1963975 (Molecular Pharmacology Branch, DTP, NCI, 2024).

Tested on: 624824-186-R-J2-PDC multicell spheroids, viability
Assay: Anticancer human tumor 624824-186-R-J2-PDC patient-derived colon adenocarcinoma cell line growth inhibition [PI3K]
Conditions: for IC50: curve of first compound; for viability, T/C: stronger effect = lower value
Summary of the method: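 High-throughput combination screen: PI3K inhibitors crossed with targeted small molecules on complex spheroids of tumor cells, HUVEC and MSCs at 37 degrees C, 5% CO2. Top concentration was at or near clinical Cmax (otherwise 10 microM), with half-log decrements.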

[1] = second compound 0.0316 µM, first compound 0.0316 µM
[2] = second compound 0.0316 µM, first compound 0.1 µM
[3] = second compound 0.0316 µM, first compound 0.316 µM
[4] = second compound 0.0316 µM, first compound 1 µM
[5] = second compound 0.1 µM, first compound 0.0316 µM
[6] = second compound 0.1 µM, first compound 0.1 µM
[7] = second compound 0.1 µM, first compound 0.316 µM
[8] = second compound 0.1 µM, first compound 1 µM
[9] = second compound 0.316 µM, first compound 0.0316 µM
[10] = second compound 0.316 µM, first compound 0.1 µM
[11] = second compound 0.316 µM, first compound 0.316 µM
[12] = second compound 0.316 µM, first compound 1 µM
[13] = second compound 1 µM, first compound 0.0316 µM
[14] = second compound 1 µM, first compound 0.1 µM
[15] = second compound 1 µM, first compound 0.316 µM
[16] = second compound 1 µM, first compound 1 µM
[17] = second compound 3.16 µM, first compound 0.0316 µM
[18] = second compound 3.16 µM, first compound 0.1 µM
[19] = second compound 3.16 µM, first compound 0.316 µM
[20] = second compound 3.16 µM, first compound 1 µM
[21] = second compound 10 µM, first compound 0.0316 µM
[22] = second compound 10 µM, first compound 0.1 µM
[23] = second compound 10 µM, first compound 0.316 µM
[24] = second compound 10 µM, first compound 1 µM
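Further: spheroids exposed to agents for 7 days before viability read.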
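Wherever viability, T/C is given: 100% = DMSO vehicle treated spheroids.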

## CC(C)NCC(C(=O)N1CCN(c2ncnc3c2C(C)CC3O)CC1)c1ccc(Cl)cc1 (centres undefined) + Cc1nc(NC(=O)N2CCCC2C(N)=O)sc1-c1ccnc(C(C)(C)C(F)(F)F)c1
Second compound 0.0316 µM
  IC50: > 10 µM
Second compound 0.1 µM
  IC50: > 10 µM
Second compound 0.316 µM
  IC50: > 10 µM
Second compound 1 µM
  IC50: > 10 µM
Second compound 3.16 µM
  IC50: > 10 µM
Second compound 10 µM
  IC50: > 10 µM
[1]
  viability, T/C: 88.1%
[2]
  viability, T/C: 106%
[3]
  viability, T/C: 72.2%
[4]
  viability, T/C: 85%
Second compound 0.0316 µM, first compound 3.16 µM
  viability, T/C: 93.3%
Second compound 0.0316 µM, first compound 10 µM
  viability, T/C: 68.2%
[5]
  viability, T/C: 79.3%
[6]
  viability, T/C: 72.6%
[7]
  viability, T/C: 85%
[8]
  viability, T/C: 68.1%
Second compound 0.1 µM, first compound 3.16 µM
  viability, T/C: 76.5%
Second compound 0.1 µM, first compound 10 µM
  viability, T/C: 74.4%
[9]
  viability, T/C: 78.2%
[10]
  viability, T/C: 68.2%
[11]
  viability, T/C: 77.5%
[12]
  viability, T/C: 75.3%
Second compound 0.316 µM, first compound 3.16 µM
  viability, T/C: 79.6%
Second compound 0.316 µM, first compound 10 µM
  viability, T/C: 64.9%
[13]
  viability, T/C: 64.5%
[14]
  viability, T/C: 85.9%
[15]
  viability, T/C: 63.4%
[16]
  viability, T/C: 86.4%
Second compound 1 µM, first compound 3.16 µM
  viability, T/C: 76.5%
Second compound 1 µM, first compound 10 µM
  viability, T/C: 75.4%
[17]
  viability, T/C: 78.2%
[18]
  viability, T/C: 79.8%
[19]
  viability, T/C: 81.3%
[20]
  viability, T/C: 82.2%
Second compound 3.16 µM, first compound 3.16 µM
  viability, T/C: 68%
Second compound 3.16 µM, first compound 10 µM
  viability, T/C: 55.9%
[21]
  viability, T/C: 73.5%
[22]
  viability, T/C: 66.6%
[23]
  viability, T/C: 58.1%
[24]
  viability, T/C: 62.5%
Second compound 10 µM, first compound 3.16 µM
  viability, T/C: 63.7%
Second compound 10 µM, first compound 10 µM
  viability, T/C: 55.8%

## CCN1CCN(Cc2ccc(Nc3ncc(F)c(-c4cc(F)c5nc(C)n(C(C)C)c5c4)n3)nc2)CC1 + Cc1nc(NC(=O)N2CCCC2C(N)=O)sc1-c1ccnc(C(C)(C)C(F)(F)F)c1
Second compound 0.0316 µM
  IC50: > 1 µM
Second compound 0.1 µM
  IC50: > 1 µM
Second compound 0.316 µM
  IC50: > 1 µM
Second compound 1 µM
  IC50: > 1 µM
Second compound 3.16 µM
  IC50: > 1 µM
Second compound 10 µM
  IC50: > 1 µM
Second compound 0.0316 µM, first compound 0.00316 µM
  viability, T/C: 95.9%
Second compound 0.0316 µM, first compound 0.01 µM
  viability, T/C: 92.4%
[1]
  viability, T/C: 87.3%
[2]
  viability, T/C: 72.8%
[3]
  viability, T/C: 75.5%
[4]
  viability, T/C: 102%
Second compound 0.1 µM, first compound 0.00316 µM
  viability, T/C: 85.8%
Second compound 0.1 µM, first compound 0.01 µM
  viability, T/C: 81.7%
[5]
  viability, T/C: 67.9%
[6]
  viability, T/C: 82.8%
[7]
  viability, T/C: 87%
[8]
  viability, T/C: 92.8%
Second compound 0.316 µM, first compound 0.00316 µM
  viability, T/C: 91.4%
Second compound 0.316 µM, first compound 0.01 µM
  viability, T/C: 79.2%
[9]
  viability, T/C: 63.6%
[10]
  viability, T/C: 76.6%
[11]
  viability, T/C: 92%
[12]
  viability, T/C: 88.7%
Second compound 1 µM, first compound 0.00316 µM
  viability, T/C: 63.2%
Second compound 1 µM, first compound 0.01 µM
  viability, T/C: 77.3%
[13]
  viability, T/C: 76.5%
[14]
  viability, T/C: 80.2%
[15]
  viability, T/C: 86%
[16]
  viability, T/C: 95.2%
Second compound 3.16 µM, first compound 0.00316 µM
  viability, T/C: 72.2%
Second compound 3.16 µM, first compound 0.01 µM
  viability, T/C: 93%
[17]
  viability, T/C: 78.7%
[18]
  viability, T/C: 68.6%
[19]
  viability, T/C: 79.4%
[20]
  viability, T/C: 82.4%
Second compound 10 µM, first compound 0.00316 µM
  viability, T/C: 63.8%
Second compound 10 µM, first compound 0.01 µM
  viability, T/C: 66.1%
[21]
  viability, T/C: 70.7%
[22]
  viability, T/C: 53%
[23]
  viability, T/C: 65.2%
[24]
  viability, T/C: 74.9%
